Assay results published in the NIST ThermoML archive (doi:10.1021/acs.jced.8b01174).

Columns and labels:
[1] = wn = mass fraction of the nth substance listed; conditions: 97.7 kPa, Liquid, w2 = 0.874; for viscosity: Concentric cylinders viscometry; for mass density: Vibrating tube method
[2] = 97.7 kPa, Liquid; for viscosity: Concentric cylinders viscometry; for mass density: Vibrating tube method
[3] = molar heat capacity at constant pressure; conditions: 100 kPa, Liquid, DSC

C1CNCCN1 [piperazine] + CN(CCO)CCO
[1]
Conditions | mass density [kg/m3] | viscosity [mPa·s]
293.15 K | 1036 | 150.46
303.15 K | 1029 | 79.46
313.15 K | 1021 | 45.07
323.15 K | 1014 | 27.24
333.15 K | 1006 | 17.41
343.15 K | 999 | 11.68
353.15 K | 991 | 8.18
363.15 K | 983 | 5.93

O [water]
Conditions | mass density, [2] [kg/m3] | molar heat capacity at constant pressure, [3] [J/K/mol] | viscosity, [2] [mPa·s]
293.15 K | 998 | – | 1
298.15 K | – | 74.8 | –
303.15 K | 996 | – | 0.8
308.15 K | – | 74.78 | –
313.15 K | 992 | – | 0.65
318.15 K | – | 74.93 | –
323.15 K | 988 | – | 0.55
328.15 K | – | 75.02 | –
333.15 K | 983 | – | 0.47
338.15 K | – | 75.07 | –
343.15 K | 978 | – | 0.4
348.15 K | – | 75.21 | –
353.15 K | 972 | – | 0.35
363.15 K | 965 | – | 0.31
